The values below come from patent US10364238B2, “N-((het) arylmethyl)-heteroaryl-carboxamides compounds as plasma kallikrein inhibitors” (KALVISTA PHARMACEUTICALS LIMITED, priority 2014, dated 2019).

Common to all, as to assay type: biochemical
One assay concerns the target Human plasma kallikrein (Homo sapiens (Human), UniProt P03952). Briefly: Determination of the IC50 for plasma kallikrein. The following applies: 25° C., fluorogenic substrate H-DPro-Phe-Arg-AFC; read-out: IC50 (human PKaI). The method, then: Determination of the IC50 for Plasma Kallikrein
Human plasma kallikrein (Protogen) was incubated at 25° C. with the fluorogenic substrate H-DPro-Phe-Arg-AFC and various concentrations of the test compound. Residual enzyme activity (initial rate of reaction) was determined by measuring the change in […] at 410 nm and the IC50 value for the test compound was determined.

For the next assay, the target named is Human KLK1 (Homo sapiens (Human), UniProt P06870). Briefly: Determination of the IC50 for KLK1. Conditions: 25° C., fluorogenic substrate H-DVal-Leu-Arg-AFC. The method, then:
Determination of the IC50 for KLK1
Human KLK1 (Callbiochem) was incubated at 25° C. with the fluorogenic substrate H-DVal-Leu-Arg-AFC and various concentrations of the test compound. Residual enzyme activity (initial rate of reaction) was determined by measuring the change in […] at 410 nm and the IC50 value for the test compound was determined.

Another assay concerns the target Human FXIa (Homo sapiens (Human), UniProt P03951). Briefly: Determination of the % inhibition for FXIa. The following applies: 40 μM test compound, 25° C., substrate Z-Gly-Pro-Arg-AFC. The method, then: Determination of the % Inhibition for FXIa
Human FXIa (Enzyme Research Laboratories) was incubated at 25° C. with the fluorogenic substrate Z-Gly-Pro-Arg-AFC and 40 μM of the test compound. Residual enzyme activity (initial rate of reaction) was determined by measuring the change in […].

Sequence of Human KLK1 (P06870 25-262): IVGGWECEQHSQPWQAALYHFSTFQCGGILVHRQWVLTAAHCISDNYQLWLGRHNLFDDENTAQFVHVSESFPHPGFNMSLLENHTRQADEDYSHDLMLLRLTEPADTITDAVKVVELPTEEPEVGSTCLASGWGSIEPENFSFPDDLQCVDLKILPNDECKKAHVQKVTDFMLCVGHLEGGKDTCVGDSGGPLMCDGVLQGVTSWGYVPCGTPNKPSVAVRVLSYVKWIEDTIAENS
Sequence of Human FXIa (P03951 388-625): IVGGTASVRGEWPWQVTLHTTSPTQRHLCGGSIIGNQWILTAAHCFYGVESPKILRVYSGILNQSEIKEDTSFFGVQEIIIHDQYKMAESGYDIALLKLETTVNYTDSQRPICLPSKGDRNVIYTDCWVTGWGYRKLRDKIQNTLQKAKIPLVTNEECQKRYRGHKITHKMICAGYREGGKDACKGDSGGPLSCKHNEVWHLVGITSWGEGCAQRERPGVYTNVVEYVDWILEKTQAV
Sequence of Human FXIa (P03951 19-387 partner): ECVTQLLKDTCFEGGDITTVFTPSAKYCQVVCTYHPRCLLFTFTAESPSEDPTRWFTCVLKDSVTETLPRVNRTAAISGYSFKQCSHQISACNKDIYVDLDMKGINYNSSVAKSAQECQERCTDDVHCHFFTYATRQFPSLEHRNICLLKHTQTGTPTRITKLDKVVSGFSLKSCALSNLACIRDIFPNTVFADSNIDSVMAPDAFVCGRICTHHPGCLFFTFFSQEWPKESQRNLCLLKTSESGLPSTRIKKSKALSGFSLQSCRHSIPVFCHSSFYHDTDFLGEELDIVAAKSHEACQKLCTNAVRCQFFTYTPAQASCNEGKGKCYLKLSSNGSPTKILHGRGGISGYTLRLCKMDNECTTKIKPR
Sequence of Human plasma kallikrein (P03952 391-638): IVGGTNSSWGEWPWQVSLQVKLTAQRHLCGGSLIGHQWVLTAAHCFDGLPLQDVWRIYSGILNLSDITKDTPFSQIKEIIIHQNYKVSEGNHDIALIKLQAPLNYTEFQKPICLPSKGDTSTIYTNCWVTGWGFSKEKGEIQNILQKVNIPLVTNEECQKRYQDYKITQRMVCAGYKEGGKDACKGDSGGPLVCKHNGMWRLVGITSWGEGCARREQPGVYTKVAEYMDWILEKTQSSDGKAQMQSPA
Sequence of Human plasma kallikrein (P03952 20-390 partner): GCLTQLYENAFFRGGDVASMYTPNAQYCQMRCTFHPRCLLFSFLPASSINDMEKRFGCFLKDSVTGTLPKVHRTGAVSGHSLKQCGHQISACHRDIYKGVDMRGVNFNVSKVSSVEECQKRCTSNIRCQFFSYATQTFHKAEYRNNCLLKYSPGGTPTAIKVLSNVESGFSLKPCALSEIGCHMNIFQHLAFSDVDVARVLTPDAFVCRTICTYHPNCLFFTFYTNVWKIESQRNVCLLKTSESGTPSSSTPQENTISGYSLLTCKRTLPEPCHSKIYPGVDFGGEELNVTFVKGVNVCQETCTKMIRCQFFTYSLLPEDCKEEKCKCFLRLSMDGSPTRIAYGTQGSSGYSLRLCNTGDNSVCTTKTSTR

As for `COCc1nn(Cc2ccc(Cn3ccncc3=O)cc2)cc1C(=O)NCc1cccc(OC)c1F` [Example 104, N-[(2-fluoro-3-methoxyphenyl)methyl]-3-(methoxymethyl)-1-({4-[(2-oxopyrazin-1-yl)methyl]phenyl}methyl)pyrazole-4-carboxamide], the IC50 is 0.691 µM at Human plasma kallikrein and above 10 µM against Human KLK1. This compound also returned an inhibition at 40 µM on Human FXIa of 0%.
The like results for `COc1cccc(CNC(=O)c2cn(Cc3ccc(Cn4ccccc4=O)cc3)nc2NC(C)=O)c1F` [Example 71, 3-acetamido-N-[(2-fluoro-3-methoxyphenyl)methyl]-1-({4-[(2-oxopyridin-1-yl)methyl]phenyl}methyl)pyrazole-4-carboxamide] were, in that order, 0.3 µM, above 10 µM and 0%.
The like results for `COCc1nn(Cc2ccc(Cn3ccccc3=O)cc2)cc1C(=O)NCc1cccc(OC)n1` [Example 40, 3-(methoxymethyl)-N-[(6-methoxypyridin-2-yl)methyl]-1-({4-[(2-oxopyridin-1-yl)methyl]phenyl}methyl)pyrazole-4-carboxamide] were, in that order, 3.7 µM, above 10 µM and 1%.
For `COCc1nn(Cc2ccc(Cn3ccccc3=O)cc2)cc1C(=O)NCc1c(F)cccc1C(N)=O` [Example 85, N-[(2-carbamoyl-6-fluorophenyl)methyl]-3-(methoxymethyl)-1-({4-[(2-oxopyridin-1-yl)methyl]phenyl}methyl)pyrazole-4-carboxamide], the IC50 on Human plasma kallikrein is 0.0792 µM; against Human KLK1, above 40 µM. For the same compound, 40 µM produced 46% inhibition at Human FXIa.
In the case of `COCc1nn(Cc2ccc(Cn3ccccc3=O)cc2)cc1C(=O)NCc1c(C)cccc1F` [Example 97, N-[(2-fluoro-6-methylphenyl)methyl]-3-(methoxymethyl)-1-({4-[(2-oxopyridin-1-yl)methyl]phenyl}methyl)pyrazole-4-carboxamide], the IC50 was 0.153 µM at Human plasma kallikrein and above 10 µM against Human KLK1. On Human FXIa, the inhibition at 40 µM stood at 0%.
The like results for `Nc1nn(Cc2ccc(Cn3ccccc3=O)cc2)cc1C(=O)NCc1cccc(O)c1F` [Example 130, 3-amino-N-[(2-fluoro-3-hydroxyphenyl)methyl]-1-({4-[(2-oxopyridin-1-yl)methyl]phenyl}methyl)pyrazole-4-carboxamide] were, in that order, 0.174 µM, above 40 µM and 0%.
The like results for `COCc1nn(Cc2ccc(Cn3ccccc3=O)cc2)cc1C(=O)NCc1cccc(OC(F)F)c1F` [Example 90, N-{[3-(difluoromethoxy)-2-fluorophenyl]methyl}-3-(methoxymethyl)-1-({4-[(2-oxopyridin-1-yl)methyl]phenyl}methyl)pyrazole-4-carboxamide] were, in that order, 0.154 µM, above 40 µM and 2%.
The like results for `COCc1nn(Cc2ccc(Cn3ccccc3=O)cc2)cc1C(=O)NCc1cc(F)cc(OC)c1` [Example 95, N-[(3-fluoro-5-methoxyphenyl)methyl]-3-(methoxymethyl)-1-({4-[(2-oxopyridin-1-yl)methyl]phenyl}methyl)pyrazole-4-carboxamide] were, in that order, 0.308 µM, above 40 µM and 1%.
Turning to `CN1CC(CNC(=O)c2cn(Cc3ccc(Cn4ccccc4=O)cc3)nc2N)Oc2cc(Cl)ccc21` (stereo not drawn) [Example 139, 3-amino-N-[(7-chloro-4-methyl-2,3-dihydro-1,4-benzoxazin-2-yl)methyl]-1-({4-[(2-oxopyridin-1-yl)methyl]phenyl}methyl)pyrazole-4-carboxamide], the figures for the IC50 at Human plasma kallikrein and against Human KLK1 were 0.0647 µM and above 40 µM, respectively. Further, 40 µM produced 33% inhibition against Human FXIa.
Take `COCc1nn(Cc2ccc(Cn3ccccc3=O)cc2)cc1C(=O)NCc1cccc(OC)c1C(F)F` [Example 69, N-{[2-(difluoromethyl)-3-methoxyphenyl]methyl}-3-(methoxymethyl)-1-({4-[(2-oxopyridin-1-yl)methyl]phenyl}methyl)pyrazole-4-carboxamide]: the IC50 at Human plasma kallikrein was 0.0168 µM; against Human KLK1 it was above 40 µM. The same compound displayed an inhibition at 40 µM at Human FXIa of 0%.
The like results for `COCc1nn(Cc2ccc(Cn3ccccc3=O)cc2)cc1C(=O)NCc1ccccc1F` [Example 62, N-[(2-fluorophenyl)methyl]-3-(methoxymethyl)-1-({4-[(2-oxopyridin-1-yl)methyl]phenyl}methyl)pyrazole-4-carboxamide] were, in that order, 0.572 µM, above 10 µM and 0%.
The like results for `COCc1nn(Cc2ccc(Cn3ccccc3=O)cc2)cc1C(=O)NCc1c(F)cccc1OC(F)F` [Example 92, N-{[2-(difluoromethoxy)-6-fluorophenyl]methyl}-3-(methoxymethyl)-1-({4-[(2-oxopyridin-1-yl)methyl]phenyl}methyl)pyrazole-4-carboxamide] were, in that order, 0.016 µM, above 10 µM and 4%.
The like results for `COCc1nn(Cc2ccc(Cn3ccccc3=O)cc2)cc1C(=O)NCc1cccc(OC)c1` [Example 133, 3-(methoxymethyl)-N-[(3-methoxyphenyl)methyl]-1-({4-[(2-oxopyridin-1-yl)methyl]phenyl}methyl)pyrazole-4-carboxamide] were, in that order, 0.0902 µM, above 10 µM and 1%.
For `COc1cccc(CNC(=O)c2cn(Cc3ccc(N4CCCC4)nc3)nc2C(F)(F)F)c1F` [Example 126, N-[(2-fluoro-3-methoxyphenyl)methyl]-1-{[6-(pyrrolidin-1-yl)pyridin-3-yl]methyl}-3-(trifluoromethyl)pyrazole-4-carboxamide], the figures for the IC50 on Human plasma kallikrein and against Human KLK1 were 0.742 µM and above 10 µM, respectively. Moreover, 40 µM produced 10% inhibition at Human FXIa.
Turning to `COCc1nn(Cc2ccc(Cn3ccccc3=O)cc2)cc1C(=O)NCc1ccccc1C(F)F` [Example 68, N-{[2-(difluoromethyl)phenyl]methyl}-3-(methoxymethyl)-1-({4-[(2-oxopyridin-1-yl)methyl]phenyl}methyl)pyrazole-4-carboxamide], the IC50 on Human plasma kallikrein was 0.0811 µM; against Human KLK1 it was above 10 µM. At Human FXIa, this compound gave an inhibition at 40 µM of 6%.
The like results for `COCc1nn(Cc2ccc(Cn3ccc(C)cc3=O)cc2)cc1C(=O)NCc1c(F)ccc(OC)c1F` [Example 106, N-[(2,6-difluoro-3-methoxyphenyl)methyl]-3-(methoxymethyl)-1-({4-[(4-methyl-2-oxopyridin-1-yl)methyl]phenyl}methyl)pyrazole-4-carboxamide] were, in that order, 0.14 µM, above 10 µM and 2%.
The like results for `COc1cccc(CNC(=O)c2cn(Cc3ccc(Cn4ccccc4=O)cc3)c(C)n2)c1F` [Example 121, N-[(2-fluoro-3-methoxyphenyl)methyl]-2-methyl-1-({4-[(2-oxopyridin-1-yl)methyl]phenyl}methyl)imidazole-4-carboxamide] were, in that order, 0.0439 µM, above 10 µM and 0%.
The like results for `COCc1nn(Cc2ccc(Cn3ccccc3=O)cc2)cc1C(=O)NCc1cc(OC)ccc1C(F)(F)F` [Example 79, N-{[5-methoxy-2-(trifluoromethyl)phenyl]methyl}-3-(methoxymethyl)-1-({4-[(2-oxopyridin-1-yl)methyl]phenyl}methyl)pyrazole-4-carboxamide] were, in that order, 0.0147 µM, above 40 µM and 2%.
Consider `COc1cccc(CNC(=O)c2cn(Cc3ccc(Cn4ccccc4=O)cc3)nc2N(C)C(C)=O)c1F` [Example 72, N-[(2-fluoro-3-methoxyphenyl)methyl]-3-(N-methylacetamido)-1-({4-[(2-oxopyridin-1-yl)methyl]phenyl}methyl)pyrazole-4-carboxamide], for which the IC50 was 6.61 µM on Human plasma kallikrein and above 10 µM at Human KLK1. In addition, at 40 µM the inhibition against Human FXIa was 1%.
The like results for `COCc1nn(Cc2ccc(Cn3ccccc3=O)cc2)cc1C(=O)NCc1ccccc1C(=O)OC` [Example 131, methyl 2-({[3-(methoxymethyl)-1-({4-[(2-oxopyridin-1-yl)methyl]phenyl}methyl)pyrazol-4-yl]formamido}methyl)benzoate] were, in that order, 1.51 µM, above 10 µM and 0%.
Regarding `NC(=O)c1cccc(CNC(=O)c2cn(Cc3ccc(Cn4ccccc4=O)cc3)nc2C2CC2)c1` [Example 49, N-[(3-carbamoylphenyl)methyl]-3-cyclopropyl-1-({4-[(2-oxopyridin-1-yl)methyl]phenyl}methyl)pyrazole-4-carboxamide], the IC50 was 5.45 µM on Human plasma kallikrein and above 10 µM on Human KLK1. Further, the “% Inhibition @ 40 μM (human FXIa)” value on Human FXIa was 0%.
On to `COCc1nn(Cc2ccc(Cn3ccccc3=O)cc2)cc1C(=O)NCc1cccc(OC(F)F)c1` [Example 91, N-{[3-(difluoromethoxy)phenyl]methyl}-3-(methoxymethyl)-1-({4-[(2-oxopyridin-1-yl)methyl]phenyl}methyl)pyrazole-4-carboxamide], for which the figures for the IC50 on Human plasma kallikrein and on Human KLK1 were 0.523 µM and above 10 µM, respectively. The same compound gave an inhibition at 40 µM against Human FXIa of 0%.

A word on the IC50: it is the concentration needed to halve the response being measured. Usually inhibition stands for the share of the control response that was lost under treatment. A lower inhibition goes with a response near the control.
